From patent US11612634B2 (priority 2020, dated 2023)

How the values were obtained:
[1] = tested on: morphine analgesic tolerance, inflammatory pain rat model; assay: Effect on morphine analgesic tolerance in Carr-induced inflammatory pain rat model; assay type: in vivo; conditions: for effect of cysteine-mutated peptide on morphine analgesic tolerance: Carr model, with morphine, dose not given
Experimental: The Carr-induced inflammatory pain model was built according to a published method (Alessandri-Haber N, et al. Neurosci. Vol 29(19), pp. 6217-6288, 2009) for evaluating an analgesic effect of drugs administered by intraplantar injection. Specifically, 6 μL of 1 wt % Carr solution was injected into the rats between the 2nd and 3rd toes of a left hind paw to induce hyperalgesia, which was manifested as plantar swelling and a declined pain threshold of the rats within 1 hour after the injection. Those rats with a PWT lower than 100 gf were considered to be a desired Carr-induced inflammatory pain model, those rats with the PWT higher than 100 gf was removed.
(§1) (1) 24 healthy adult SD rats, weighing 180-220 g, were selected, reinjected with 6 μL of a 1 wt % Carr solution and divided into 4 groups randomly and averagely (i.e., groups A-D). The group A was injected with normal saline; the group B was intradermally injected with 0.1 μg/kg of the short peptide P10581 through the plantar surface of the left hind paw; the group C was intradermally injected with 0.1 μg/kg of the short peptide P10581 and then with 5 mg/kg of morphine 30 min later through the plantar surface of the left hind paw; and the group D was intradermally injected with 0.05 μg/kg of the short peptide P10581, and then with 5 mg/kg of morphine 30 min later through the plantar surface of the left hind paw. 1 h later, the PWT of each group was recorded when the mechanical withdrawal of the left hind paw occurred, and each rat was measured 3-5 times at an interval of 5-10 min.
(§2) (2) The drug was injected every 2 h according to the above-mentioned administration dose and time (seven times in total), and the PWT was recorded.
(S1) By means of molecular biological techniques, two cysteine residues (Cys10 and Cys11) in the short peptide P10581 were replaced with alanine (Ala), and the resulting peptide was named P10581-1 (SEQ ID NO: 2).
(S2) Three cysteine residues (Cys10, Cys11 and Cys17) in the short peptide P10581 were replaced with alanine (Ala), and the resulting peptide was named P10581-2 (SEQ ID NO: 3).
The rat was injected with 6 μL of 1 wt % Carr to establish a Carr-induced inflammatory pain model, and the effect of the short peptides P10581, P10581-1 and P10581-2 on the morphine analgesic tolerance was analyzed according to Experimental Example 1. […]

[2] = tested on: Carr-induced inflammatory pain rat model; assay: Analgesic effect on mechanical hyperalgesia (PWT) in Carr-induced inflammatory pain rat model; assay type: in vivo; conditions: 2 μg/kg i.d. plantar, every 2 h, six injections
Experimental: The mechanical hyperalgesia of rats was measured by 38500-pressure application measurement (PAM) system (Ugo Basile Biological Research Apparatus, Comerio-Varese, Italy), which consisted of a hand-held part and an integrated electronic part. The hand-held part was a force sensor which was designed according to a Randall-Selitto algesimeter. The integrated electronic part was configured to automatically record a maximum PWT applied to the left hind paw of the rats.
The Carr-induced inflammatory pain model was built according to a published method (Alessandri-Haber N, et al. Neurosci. Vol 29(19), pp. 6217-6288, 2009) for evaluating an analgesic effect of drugs administered by intraplantar injection. […] Those rats with a PWT lower than 100 gf were considered to be a desired Carr-induced inflammatory pain model, those rats with the PWT higher than 100 gf was removed.
(S1) A total of 18 healthy adult SD rats, weighing 180-220 g, were selected, numbered on tails and placed in the same cage.
(S2) The rats were maintained in a measuring room for 2 h for adaptation.
The measurement was repeated 3-5 times for each rat with an interval of 5-10 min. The results of multiple PWT measurements were averaged as the Baseline (BL) (unit: g). After that, 6 μL of 1 wt % Carr was intradermally injected into the plantar surface of the hind paw to build an inflammatory pain rat model.
(S4) The PWT of the left hind paw of each rat was measured 1 h after the Carr injection. Rats with a higher inflammatory threshold and rats with a lower inflammatory threshold were mixed and equally divided into three groups (group A, group B and group C), each for six rats, such that any two groups of rats had similar distribution of inflammatory threshold. The groups A, B and C were intradermally injected with normal saline, 5 mg/kg of morphine and 2 μg/kg of the short peptide P10581, respectively, at the plantar surface of the left hind paw. 1 h later, the PWT of the left hind paw of the rats in each group was measured 3-5 times at an interval of 5-10 min. The multiple PWT measurement results were averaged as the practical PWT (unit: g). Then the drug was injected every 2 h according to the above-mentioned administration dose and time, and the corresponding PWT was recorded (six injections in total).
as §1, §2
(S1) A total of 20 healthy adult SD rats (half male and half female), weighing 180-220 g, were selected, numbered on tails and transferred to the same cage.
(S4) The PWT of the left hind paw of each rat was measured 1 h after the Carr injection.

Sequence	effect of cysteine-mutated peptide on morphine analgesic tolerance [1]	decrease in the analgesic effect compared to P10581 ([1]; after 8 injections, with morphine (FIG. 5C)) [%]	analgesic effect on Carr-induced inflammatory pain threshold (PWT) [2]	analgesic tolerance after repeated injection [2]	effect on morphine analgesic tolerance ([1]; 0.1 μg/kg peptide i.d. 30 min before 5 mg/kg morphine, every 2 h)
WKCNPNDDKAARPKLKA [P10581-2, P10581 with Cys10, Cys11 and Cys17 replaced with alanine]	no relieving effect on the morphine analgesic tolerance	–	–	–	–
WKCNPNDDKAARPKLKC [P10581-1, P10581 with Cys10 and Cys11 replaced with alanine]	merely partially relieve the morphine analgesic tolerance	57.6	–	–	–
WKCNPNDDKCR [P10583, comparative short peptide, reference compound]	–	–	completely reverse the Carr-induced inflammatory pain threshold	without developing the analgesic tolerance	no relieving effect
